The text below walks through data of US11116757B2 (priority 2015, dated 2021).

For the first assay, the target named is DCN1-UBC12 interaction (Homo sapiens (Human), UniProt Q96GG9). The assay is described as follows: biochemical. It is filed as binding. Conditions: Table 4, commercial compounds; read-out: TR-FRET IC50.
DCN1-UBC12 interaction, sequence (Q96GG9 60-248 limits assumed): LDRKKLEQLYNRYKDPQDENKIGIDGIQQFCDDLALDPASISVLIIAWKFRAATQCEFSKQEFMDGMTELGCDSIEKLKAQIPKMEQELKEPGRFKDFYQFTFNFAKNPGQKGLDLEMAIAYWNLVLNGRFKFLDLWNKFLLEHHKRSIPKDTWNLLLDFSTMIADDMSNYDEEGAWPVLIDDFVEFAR
As to `O=C(Nc1cccc(C(F)(F)F)c1)C1CCN(C(=O)c2cccc(F)c2)CC1` [C10], the IC50 is > 42.9 µM.
Still for that read-out and setting: for `O=C(Nc1ccc(Cl)c(C(F)(F)F)c1)C1CCN(C(=O)c2ccc(F)cc2)CC1` [C20] the value was > 67.6 µM; for `CC1CN(C(=O)N2CCC(C(=O)Nc3cccc(Cl)c3)CC2)c2ccccc2O1` (centres unmarked) [C51], > 67.6 µM; for `COc1ccc(Cl)cc1NC(=O)C1CCN(C(=O)c2ccccc2F)CC1` [C42], > 67.6 µM.
On the same count and under the same terms, in the case of `O=C(Nc1cccc(Br)c1)C1CCN(C(=O)c2cccc(Cl)c2)CC1` [C3] it was 22.4 µM; in that of `COc1ccc(OC)c(NC(=O)C2CCN(C(C)=O)CC2)c1` [C33], > 67.6 µM; in that of `Cc1cc(C)n(-c2ccc(NC(=O)C3CCN(C(=O)CC(F)(F)F)CC3)cc2)n1` [C34], > 67.6 µM.
Still for that read-out and setting: in the case of `COc1ccc(C(=O)N2CCC(C(=O)Nc3cccc(C)c3C)CC2)cc1` [C19] it was > 67.6 µM; in that of `O=C(Nc1ccc(F)cc1)C1CCN(C(=O)c2ccco2)CC1` [C31], > 67.6 µM.
Turning to `O=C(Nc1cccc(C(F)(F)F)c1)C1CCN(C(=O)/C=C/c2ccccc2)CC1` [C57], the IC50 is > 67.6 µM.
For the compound `CC(=O)N1CCC(C(=O)Nc2cccc(C)c2C)CC1` [C41], the IC50 is > 67.6 µM.

The same assay, now with this note: Table 6, commercial compounds; read-out: TR-FRET IC50.
As for `CCN1CCN(C(=O)c2cnn(-c3nccc(-c4cccs4)n3)c2C2CC2)CC1` [E14], the IC50 turned out to be 29.9 µM.
Regarding `CCN(CC)CCNC(=O)c1cnn(-c2ncc(C)c(-c3cccs3)n2)c1C1CC1` [E28], the IC50 was > 37.4 µM.
Consider `CCCCN(C)C(=O)c1cnn(-c2ncc(C)c(-c3cccs3)n2)c1C` [E42], for which the concentration for half-maximal inhibition (IC50) is > 67.6 µM.
The same measure, in the same setting: for `Cc1cnc(-n2ncc(C(=O)NCCC(C)C)c2C)nc1-c1cccs1` [E29] the value was > 67.6 µM.
In the case of `CCN(CC)C(=O)c1cnn(-c2ncc(C)c(-c3cccs3)n2)c1C` [E57], the IC50 is > 67.6 µM.
As to `CCN1CCN(C(=O)c2cnn(-c3ncc(C)c(-c4cccs4)n3)c2C2CC2)CC1` [E44], the IC50 was > 67.6 µM.

The assay is the same for the next values; noted with them: Table 7, commercial compounds; read-out: TR-FRET IC50.
With `COc1ccc(C2c3c(C)nn(C)c3NC(=O)C2NC(=O)c2cccc(C)c2)cc1OC` (centres unmarked) [F14], the IC50 was > 67.6 µM.
Take `COc1ccc(C2c3c(C)nn(C)c3NC(=O)C2NC(=O)c2ccc(OC)c(OC)c2)cc1F` (centres unmarked) [F20]: the IC50 was > 67.6 µM.
`COc1cccc(C2c3c(C)nn(C)c3NC(=O)C2NC(=O)c2cccc(C)c2)c1` (centres unmarked) [F27]: the IC50 is > 67.6 µM.

The assay is the same for the next values; noted with them: read-out: TR-FRET IC50.
On to `O=C(c1cccc(C(F)(F)F)c1)N(Cc1ccccc1)C1CC2CCC(C1)N2Cc1ccccc1` (centres unmarked) [A234], for which the IC50 was > 40.6 µM.
On the same count and under the same terms, in the case of `Cc1ccc(CN2CCC(N(Cc3ccccc3)C(=O)Nc3cc(F)cc(C(F)(F)F)c3)CC2)s1` [A227] it was > 27 µM; in that of “1-Benzyl-1-(1-Isopentylpiperidin-4-yl)-3-(3-(Trifluoromethyl)Phenyl)Urea [A90]”, 1.13 µM; in that of `O=C(Nc1cc(F)cc(C(F)(F)F)c1)N(Cc1ccccc1)C1CCN(Cc2cnccn2)CC1` [A226], > 26.6 µM.
Same read-out and setting: in the case of `Cc1cccc(NC(=O)NC2CCN(Cc3ccccc3)CC2)c1` [B57] it was > 67.6 µM.
On to `CCCC(C)N1CCC(N(Cc2ccccc2)C(=O)Nc2ccc(S(=O)(=O)Nc3ccc(OC)nn3)cc2)CC1` (centres unmarked) [A296], for which the IC50 was > 83.4 µM.
On the same count and under the same terms, in the case of `CC1CN(Cc2ccccc2)CCC1N(C)C(=O)Nc1cccc2cnccc12` (centres unmarked) [B23] it was > 113 µM; in that of `Cc1ccc(C(=O)N2CCC(c3nc4ccccc4s3)CC2)cc1C` [D17], > 53.9 µM; in that of `CCCC(C)N1CCC(N(Cc2ccccc2)C(=O)Nc2ccc(Cl)nc2)CC1` (centres unmarked) [A277], > 68.8 µM.
On the same count and under the same terms, in the case of `CCCC(C)N1CCC(N(Cc2ccccc2)C(=O)Nc2ccc(S(=O)(=O)NC(C)=O)cc2)CC1` (centres unmarked) [A283] it was > 72.1 µM.
In the case of `CC(=O)N1CCC(N(Cc2ccco2)C(=O)Nc2ccccc2Br)CC1` [B71], the concentration for half-maximal inhibition (IC50) is > 67.6 µM.
For the compound `CCCC(C)N1CCC(N(CCCNC(=O)CCl)C(=O)Nc2cccc(C(F)(F)F)c2)CC1` (centres unmarked) [A245], the IC50 is > 53.9 µM.
Same read-out and setting: for `CCCCN1CCC(N(Cc2ccccc2)C(=O)Nc2cc(F)cc(C(F)(F)F)c2)CC1` [A45] the value was 0.256 µM; for `CCCC(C)N1CCC(N(Cc2ccccc2)C(=O)Nc2cc(Cl)c(Cl)cc2F)CC1` (centres unmarked) [A78], 0.801 µM; for `CCCC1CCC(N(Cc2ccccc2)C(=O)Nc2cccc(C(F)(F)F)c2)CC1` (centres unmarked) [A232], > 38.7 µM.
Still for that read-out and setting: in the case of `CCCC(C)N1CCC(N(Cc2ccccc2)C(=O)Nc2nc3c(OC)cccc3s2)CC1` (centres unmarked) [A301] it was > 86.1 µM.
Still for that read-out and setting: for `Cc1ccc(C(=O)N2CCC(c3nc4ccccc4s3)CC2)cc1` [D3] the value was 14.7 µM; for `CCCC(C)N1CCC(N(Cc2ccccc2)C(=O)Nc2cccc([N+](=O)[O-])c2C)CC1` (centres unmarked) [A161], 7.94 µM; for `CCCC(C)N1CCC(N(Cc2ccccc2)C(=O)Nc2cc(F)cc(Cl)c2)CC1` (centres unmarked) [A67], 0.482 µM.
`CCCCN1C(C)(C)CC(N(Cc2ccccc2)C(=O)Nc2cccc(C(F)(F)F)c2)CC1(C)C` [A188]: the concentration for half-maximal inhibition (IC50) was found to be 34.3 µM.
Still for that read-out and setting: in the case of `O=C(Nc1ccc(Br)cc1Cl)NC1CCN(Cc2ccccc2)CC1` [B50] it was > 67.6 µM; in that of `CCCCN(C(=O)Nc1cccc(C(F)(F)F)c1)C1CCN(CCC)CC1` [A96, 1-Butyl-1-(1-Propylpiperidin-4-yl)-3-(3-(Trifluoromethyl)Phenyl)Urea], 1.33 µM.
Regarding `CCCC(C)N1CCC(N(Cc2ccccc2)C(=O)Nc2ccc(-c3ccc(OC)cc3)cc2)CC1` (centres unmarked) [A164], the IC50 was found to be 8.9 µM.
As to `O=C(Nc1cc(F)cc(C(F)(F)F)c1)N(Cc1ccccc1)C1CCN(Cc2cccc(Oc3ccccc3)c2)CC1` [A217], the IC50 was > 23.9 µM.
Same read-out and setting: in the case of `O=C(Nc1ccc(CN2CCOCC2)cc1)Nc1cccc(C(F)(F)F)c1` [B108] it was > 72.8 µM.
Regarding `CC1CC(NC(=O)Nc2cnn(C)c2)CCN1Cc1ccccc1` (centres unmarked) [B42], the IC50 was > 64.4 µM.
On the same count and under the same terms, for `O=C(c1ccccc1O)N1CCC(c2nc3ccccc3s2)CC1` [D29] the value was > 67.6 µM.
On the same count and under the same terms, in the case of `Cc1ccc(CN(C(=O)Nc2cccc(C(F)(F)F)c2)C2CCN(Cc3ccccc3)CC2)o1` [B1] it was 2.73 µM; in that of `CCOc1ccccc1NC(=O)N(C(C)C)C1CCN(C(C)=O)CC1` [B67], > 67.6 µM; in that of `CCCC(C)N1CCC(N(Cc2ccc3c(c2)OCO3)C(=O)Nc2cc(F)cc(C(F)(F)F)c2)CC1` (centres unmarked) [A51], 0.273 µM.
Still for that read-out and setting: for `CCCC(C)N1CCC(N(Cc2ccccc2)C(=O)Nc2cccc(Cl)c2Cl)CC1` (centres unmarked) [A103] the value was 1.74 µM; for `CCCC(C)N1CCC(N(Cc2ccccc2)C(=O)Nc2cc(OC)c(OC)c(OC)c2)CC1` (centres unmarked) [A246], > 55.6 µM; for `CC(c1ccccn1)N1CCC(N(Cc2ccccc2)C(=O)Nc2cc(F)cc(C(F)(F)F)c2)CC1` (centres unmarked) [A145], 4.57 µM.
As for `O=C(NCCN1CCN(Cc2ccccc2C(F)(F)F)CC1)Nc1ccccc1` [B48], the IC50 is > 67 µM.
On the same count and under the same terms, in the case of `O=C(Nc1cc(F)cc(C(F)(F)F)c1)N(Cc1ccccc1)C1CCN(Cc2csc3ccccc23)CC1` [A212] it was > 22.5 µM.
The same measure, in the same setting: in the case of `O=C(Nc1cc(F)cc(C(F)(F)F)c1)N(Cc1ccccc1)C1CCN(Cc2cc[nH]n2)CC1` [A213] it was > 22.5 µM; in that of `CCCC(C)N1CCC(N(Cc2ccccc2)C(=O)Nc2ccc(C(=O)OC)cc2)CC1` (centres unmarked) [A163], 8.42 µM; in that of `CCCC(C)N1CCC(N(Cc2ccccc2)C(=O)Nc2cc(F)ccc2F)CC1` (centres unmarked) [A281], > 70.6 µM.
As for “1-Benzyl-1-(1-(4-Fluorobenzyl)Piperidin-4-yl)-3-(3-(Trifluoromethyl)Phenyl)Urea [A171]”, the IC50 came to 12.7 µM.
On the same count and under the same terms, for `CCCC(C)N1CCC(N(CCNC(=O)CCl)C(=O)Nc2cccc(C(F)(F)F)c2)CC1` (centres unmarked) [drawing 837] the value was > 60 µM; for `O=C(Nc1cccc(Cl)c1)NC1CCN(Cc2ccccc2)CC1` [B110], > 73.1 µM; for `CCCC(C)N1CCC(N(Cc2ccccc2)C(=O)Nc2cccc(N(C)C)c2)CC1` (centres unmarked) [A112], 2.3 µM.
Regarding `Cn1cncc1CN1CCC(N(Cc2ccccc2)C(=O)Nc2cc(F)cc(C(F)(F)F)c2)CC1` [A221], the IC50 was > 24.8 µM.
Same read-out and setting: in the case of `CC(Cc1cccc(C(F)(F)F)c1)NC1CCN(Cc2ccccc2)CC1` (centres unmarked) [B38] it was > 61.3 µM.
Still for that read-out and setting: for `C=CS(=O)(=O)Nc1cccc(CN(C(=O)Nc2cccc(C(F)(F)F)c2)C2CCN(C(C)CCC)CC2)c1` (centres unmarked) [drawing 844] the value was 0.165 µM.
With `C#CCCCN1CCC(N(Cc2ccccc2NC(=O)CC)C(=O)Nc2ccc(Cl)c(Cl)c2)CC1` [A199], the IC50 is > 14.5 µM.
On to `O=C(Nc1ccccc1Cl)NC1CCN(Cc2ccccc2)CC1` [B55], for which the IC50 was > 67.6 µM.
On the same count and under the same terms, for `CCCC(C)N1CCC(N(Cc2ccccc2)C(=O)Nc2ccccc2OC(F)(F)F)CC1` (centres unmarked) [A191] the value was 44.9 µM; for `CCCC(C)N1CCC(N(Cc2ccccc2)C(=O)Nc2ccc(OC)c(Cl)c2)CC1` (centres unmarked) [A138], 4.05 µM.
For `Cc1ccc(CN2CCC(N(Cc3ccccc3)C(=O)Nc3cc(F)cc(C(F)(F)F)c3)CC2)o1` [A219], the IC50 is > 24.2 µM.
On the same count and under the same terms, for `CC(=O)N1CCC(N(Cc2ccco2)C(=O)Nc2ccccc2C(F)(F)F)CC1` [B76] the value was > 67.6 µM; for `CCOc1ccc(C(=O)NCC(=O)N2CCC(c3nc4ccccc4s3)CC2)cc1` [D33], > 67.6 µM; for `C=CS(=O)(=O)NCc1ccccc1CN(C(=O)Nc1cccc(C(F)(F)F)c1)C1CCN(C(C)CCC)CC1` (centres unmarked) [drawing 850], < 0.01 µM.
The same measure, in the same setting: for `O=C(Nc1cc(F)cc(C(F)(F)F)c1)N(Cc1ccccc1)C1CCN(Cc2ccc(N3CCCC3)cc2)CC1` [A201] the value was > 19.1 µM; for `C=CC(=O)NCCN(C(=O)Nc1cccc(C(F)(F)F)c1)C1CCN(C(C)CCC)CC1` (centres unmarked) [A187], 33.8 µM; for `CCCN1CCC(NC(=O)Nc2ccc(C)c(Cl)c2)CC1` [B34], > 55.5 µM.
As for `CCCC(C)N1CCC(N(Cc2ccccc2)C(=O)Nc2ccc(C(=O)OC)cc2I)CC1` (centres unmarked) [A190], the IC50 is 37.8 µM.
On to `CCCC(C)N1CCC(N(Cc2ccccc2)C(=O)Nc2ccc(C3CCCCC3)cc2)CC1` (centres unmarked) [A110], for which the concentration for half-maximal inhibition (IC50) was found to be 2.21 µM.
The same measure, in the same setting: in the case of `CCCC(C)N1CCC(N(Cc2ccccc2)C(=O)Nc2ccc(-c3ccc(C(=O)OC)cc3)cc2)CC1` (centres unmarked) [A278] it was > 69.1 µM; in that of `CCCC(C)N1CCC(N(Cc2ccccc2)C(=O)Nc2ccc(O)cc2C)CC1` (centres unmarked) [A115], 2.36 µM.
